Counter-ions that a name gives are not always drawn. Like-named read-outs stand apart in the source and are kept apart here.
Molecular target: hBTK (full-length BTK, 6HIS-tag cleaved) (Homo sapiens (Human), UniProt Q06187)
Assay: BTK enzymatic activity, LANCE TR-FRET assay (Assay Method C)
Type: biochemical
Details: 50 pM hBTK, 25 μM ATP
[1] = LANCE TR-FRET, class 100-1000 is given as ≧100 nM-<1 μM, read-out: IC50 Btk activity values - Assay Method C

hBTK (full-length BTK, 6HIS-tag cleaved), sequence (Q06187 whole entry): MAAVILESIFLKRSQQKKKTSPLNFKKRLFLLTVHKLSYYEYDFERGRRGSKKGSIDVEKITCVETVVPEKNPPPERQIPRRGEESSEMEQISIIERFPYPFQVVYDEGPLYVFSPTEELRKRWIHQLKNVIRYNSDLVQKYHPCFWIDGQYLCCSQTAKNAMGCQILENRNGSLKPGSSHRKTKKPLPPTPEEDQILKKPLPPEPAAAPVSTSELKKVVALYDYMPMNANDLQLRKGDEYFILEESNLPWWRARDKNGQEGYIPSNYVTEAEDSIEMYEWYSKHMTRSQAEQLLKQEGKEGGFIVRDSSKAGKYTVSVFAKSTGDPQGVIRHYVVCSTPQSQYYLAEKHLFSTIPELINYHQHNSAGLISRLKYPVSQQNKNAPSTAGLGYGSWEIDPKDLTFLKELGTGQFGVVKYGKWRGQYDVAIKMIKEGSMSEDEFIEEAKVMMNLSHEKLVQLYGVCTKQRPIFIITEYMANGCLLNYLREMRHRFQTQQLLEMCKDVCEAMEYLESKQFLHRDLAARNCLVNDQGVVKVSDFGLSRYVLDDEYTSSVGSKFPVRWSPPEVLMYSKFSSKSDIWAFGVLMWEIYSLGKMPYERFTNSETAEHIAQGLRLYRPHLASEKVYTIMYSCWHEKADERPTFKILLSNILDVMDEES

SMILES | IC50 [1] [nM] | IC50 (Table D, Assay Method C (LANCE TR-FRET), read-out: IC50 BTK activity value) [nM]
Nc1ncc(Cl)n2c([C@H]3CN(C(=O)C4(O)CC4)CCO3)nc(-c3ccc(C(=O)Nc4cc(C(F)(F)F)ccn4)cc3)c12 [Example 525, 4-(8-amino-5-chloro-3-{(2R)-4-[(1-hydroxycyclopropyl)carbonyl]morpholin-2-yl}imidazo[1,5-a]pyrazin-1-yl)-N-[4-(trifluoromethyl)pyridin-2-yl]benzamide] | < 10 | 
Nc1ncc(Cl)n2c([C@H]3CN(CC(F)(F)F)CCO3)nc(-c3ccc(C(=O)Nc4cc(C(F)(F)F)ccn4)cc3)c12 [Example 526, 4-{8-amino-5-chloro-3-[(2R)-4-(2,2,2-trifluoroethyl)morpholin-2-yl]imidazo[1,5-a]pyrazin-1-yl}-N-[4-(trifluoromethyl)pyridin-2-yl]benzamide] | < 10 | 
CC1(C(=O)N2CCO[C@@H](c3nc(-c4ccc(C(=O)Nc5cc(C(F)(F)F)ccn5)cc4)c4c(N)ncc(C#N)n34)C2)COC1 [Example 527, 4-(8-amino-5-cyano-3-{(2R)-4-[(3-methyloxetan-3-yl)carbonyl]morpholin-2-yl}imidazo[1,5-a]pyrazin-1-yl)-N-[4-(trifluoromethyl)pyridin-2-yl]benzamide] | < 10 | 
COCC(=O)N1CCO[C@@H](c2nc(-c3ccc(C(=O)Nc4cc(C(F)(F)F)ccn4)cc3)c3c(N)ncc(Cl)n23)C1 [Example 528, 4-{8-amino-5-chloro-3-[(2R)-4-(methoxyacetyl)morpholin-2-yl]imidazo[1,5-a]pyrazin-1-yl}-N-[4-(trifluoromethyl)pyridin-2-yl]benzamide] | < 10 | 0.892
COCCOCC(=O)N1CCO[C@@H](c2nc(-c3ccc(C(=O)Nc4cc(C(F)(F)F)ccn4)cc3)c3c(N)ncc(Cl)n23)C1 [Example 529, 4-(8-amino-5-chloro-3-{(2R)-4-[(2-methoxyethoxy)acetyl]morpholin-2-yl}imidazo[1,5-a]pyrazin-1-yl)-N-[4-(trifluoromethyl)pyridin-2-yl]benzamide] | < 10 | 
N#CCN1CCO[C@@H](c2nc(-c3ccc(C(=O)Nc4cc(C(F)(F)F)ccn4)cc3)c3c(N)nccn23)C1 [Example 531, 4-{8-amino-3-[(2R)-4-(cyanomethyl)morpholin-2-yl]imidazo[1,5-a]pyrazin-1-yl}-N-[4-(trifluoromethyl)pyridin-2-yl]benzamide] | < 10 | 
N#CCCN1CCO[C@@H](c2nc(-c3ccc(C(=O)Nc4cc(C(F)(F)F)ccn4)cc3)c3c(N)nccn23)C1 [Example 532, 4-{8-amino-3-[(2R)-4-(2-cyanoethyl)morpholin-2-yl]imidazo[1,5-a]pyrazin-1-yl}-N-[4-(trifluoromethyl)pyridin-2-yl]benzamide] | < 10 | 
N#CCN1CCO[C@@H](c2nc(-c3ccc(C(=O)Nc4cc(C(F)(F)F)ccn4)cc3)c3c(N)ncc(Cl)n23)C1 [Example 533, 4-{8-amino-5-chloro-3-[(2R)-4-(cyanomethyl)morpholin-2-yl]imidazo[1,5-a]pyrazin-1-yl}-N-[4-(trifluoromethyl)pyridin-2-yl]benzamide] | < 10 | 
CCN1CCO[C@H](c2nc(-c3ccc(C(=O)Nc4cc(C(F)(F)F)ccn4)cc3)c3c(N)nccn23)C1 [Example 534, 4-{8-amino-3-[(2S)-4-ethylmorpholin-2-yl]imidazo[1,5-a]pyrazin-1-yl}-N-[4-(trifluoromethyl)pyridin-2-yl]benzamide] | 10 to 100 | 
Nc1ncc(Cl)n2c([C@H]3CN(CCO)CCO3)nc(-c3ccc(C(=O)Nc4cc(C(F)(F)F)ccn4)cc3)c12 [Example 535, 4-{8-amino-5-chloro-3-[(2R)-4-(2-hydroxyethyl)morpholin-2-yl]imidazo[1,5-a]pyrazin-1-yl}-N-[4-(trifluoromethyl)pyridin-2-yl]benzamide, TFA salt] | < 10 | 
COCC(=O)N1CCO[C@@H](c2nc(-c3ccc(C(=O)Nc4cc(C(F)(F)F)ccn4)cc3)c3c(N)ncc(C)n23)C1 [Example 536, 4-{8-amino-3-[(2R)-4-(methoxyacetyl)morpholin-2-yl]-5-methylimidazo[1,5-a]pyrazin-1-yl}-N-[4-(trifluoromethyl)pyridin-2-yl]benzamide, TFA salt] | < 10 | 

Continued, values first:

IC50 [1] [nM] | IC50 (Table D, Assay Method C (LANCE TR-FRET), read-out: IC50 BTK activity value) [nM] | SMILES
< 10 |  | COCCC(=O)N1CCO[C@@H](c2nc(-c3ccc(C(=O)Nc4cc(C(F)(F)F)ccn4)cc3)c3c(N)ncc(C)n23)C1 [Example 510, 4-{8-amino-3-[(2R)-4-(3-methoxypropanoyl)morpholin-2-yl]-5-methylimidazo[1,5-a]pyrazin-1-yl}-N-[4-(trifluoromethyl)pyridin-2-yl]benzamide]
< 10 |  | CCN1CCO[C@@H](c2nc(-c3ccc(C(=O)Nc4cc(C(F)(F)F)ccn4)cc3)c3c(N)ncc(C)n23)C1 [Example 511, 4-{8-amino-3-[(2R)-4-ethylmorpholin-2-yl]-5-methylimidazo[1,5-a]pyrazin-1-yl}-N-[4-(trifluoromethyl)pyridin-2-yl]benzamide]
< 10 |  | Nc1nccn2c([C@H]3CN(C(=O)C4CC4)CCO3)nc(-c3ccc(C(=O)Nc4cc(C(F)(F)F)ccn4)cc3F)c12 [Example 512, 4-{8-amino-3-[(2R)-4-(cyclopropylcarbonyl)morpholin-2-yl]imidazo[1,5-a]pyrazin-1-yl}-3-fluoro-N-[4-(trifluoromethyl)pyridin-2-yl]benzamide, TFA salt]
< 10 |  | CC1(C(=O)N2CCO[C@@H](c3nc(-c4ccc(C(=O)Nc5cc(C(F)(F)F)ccn5)cc4F)c4c(N)nccn34)C2)COC1 [Example 513, 4-(8-amino-3-{(2R)-4-[(3-methyloxetan-3-yl)carbonyl]morpholin-2-yl}imidazo[1,5-a]pyrazin-1-yl)-3-fluoro-N-[4-(trifluoromethyl)pyridin-2-yl]benzamide, TFA salt]
< 10 |  | Cc1cnc(N)c2c(-c3ccc(C(=O)Nc4cc(C(F)(F)F)ccn4)cc3F)nc([C@H]3CN(C(=O)C4(C)COC4)CCO3)n12 [Example 514, 4-(8-amino-5-methyl-3-{(2R)-4-[(3-methyloxetan-3-yl)carbonyl]morpholin-2-yl}imidazo[1,5-a]pyrazin-1-yl)-3-fluoro-N-[4-(trifluoromethyl)pyridin-2-yl]benzamide]
< 10 |  | C[C@H]1CO[C@@H](c2nc(-c3ccc(C(=O)Nc4cc(C(F)(F)F)ccn4)cc3)c3c(N)nccn23)CN1C(=O)C1(C)COC1 [Example 515, 4-(8-amino-3-{(2R,5S)-5-methyl-4-[(3-methyloxetan-3-yl)carbonyl]morpholin-2-yl}imidazo[1,5-a]pyrazin-1-yl)-N-[4-(trifluoromethyl)pyridin-2-yl]benzamide, TFA salt]
< 10 |  | C[C@H]1CO[C@@H](c2nc(-c3ccc(C(=O)Nc4cc(C(F)(F)F)ccn4)cc3)c3c(N)nccn23)CN1C(=O)C1CC1 [Example 516, 4-{8-amino-3-[(2R,5S)-4-(cyclopropylcarbonyl)-5-methylmorpholin-2-yl]imidazo[1,5-a]pyrazin-1-yl}-N-[4-(trifluoromethyl)pyridin-2-yl]benzamide, TFA salt]
< 10 |  | Nc1nccn2c([C@H]3CN(C(=O)CO)CCO3)nc(-c3ccc(C(=O)Nc4cc(C(F)(F)F)ccn4)cc3)c12 [Example 517, 4-{8-amino-3-[(2R)-4-(hydroxyacetyl)morpholin-2-yl]imidazo[1,5-a]pyrazin-1-yl}-N-[4-(trifluoromethyl)pyridin-2-yl]benzamide]
< 10 |  | CCOCC(=O)N1CCO[C@@H](c2nc(-c3ccc(C(=O)Nc4cc(C(F)(F)F)ccn4)cc3)c3c(N)nccn23)C1 [Example 518, 4-{8-amino-3-[(2R)-4-(ethoxyacetyl)morpholin-2-yl]imidazo[1,5-a]pyrazin-1-yl}-N-[4-(trifluoromethyl)pyridin-2-yl]benzamide]
< 10 |  | C[C@H](O)C(=O)N1CCO[C@@H](c2nc(-c3ccc(C(=O)Nc4cc(C(F)(F)F)ccn4)cc3)c3c(N)nccn23)C1 [Example 519, 4-(8-amino-3-{(2R)-4-[(2S)-2-hydroxypropanoyl]morpholin-2-yl}imidazo[1,5-a]pyrazin-1-yl)-N-[4-(trifluoromethyl)pyridin-2-yl]benzamide]
< 10 |  | C[C@@H](O)C(=O)N1CCO[C@@H](c2nc(-c3ccc(C(=O)Nc4cc(C(F)(F)F)ccn4)cc3)c3c(N)nccn23)C1 [Example 520, 4-(8-amino-3-{(2R)-4-[(2R)-2-hydroxypropanoyl]morpholin-2-yl}imidazo[1,5-a]pyrazin-1-yl)-N-[4-(trifluoromethyl)pyridin-2-yl]benzamide]
< 10 |  | COCC(=O)N1CCO[C@@H](c2nc(-c3ccc(C(=O)Nc4cc(C(F)(F)F)ccn4)cc3)c3c(N)nccn23)C1 [Example 521, 4-{8-amino-3-[(2R)-4-(methoxyacetyl)morpholin-2-yl]imidazo[1,5-a]pyrazin-1-yl}-N-[4-(trifluoromethyl)pyridin-2-yl]benzamide]
< 10 |  | CCN1CCO[C@@H](c2nc(-c3ccc(C(=O)Nc4cc(C(F)(F)F)ccn4)cc3)c3c(N)ncc(Cl)n23)C1 [Example 522, 4-{8-amino-5-chloro-3-[(2R)-4-ethylmorpholin-2-yl]imidazo[1,5-a]pyrazin-1-yl}-N-[4-(trifluoromethyl)pyridin-2-yl]benzamide]
< 10 |  | C[C@H](O)C(=O)N1CCO[C@@H](c2nc(-c3ccc(C(=O)Nc4cc(C(F)(F)F)ccn4)cc3)c3c(N)ncc(Cl)n23)C1 [Example 523, 4-(8-amino-5-chloro-3-{(2R)-4-[(2S)-2-hydroxypropanoyl]morpholin-2-yl}imidazo[1,5-a]pyrazin-1-yl)-N-[4-(trifluoromethyl)pyridin-2-yl]benzamide]
< 10 |  | C[C@@H](O)C(=O)N1CCO[C@@H](c2nc(-c3ccc(C(=O)Nc4cc(C(F)(F)F)ccn4)cc3)c3c(N)ncc(Cl)n23)C1 [Example 524, 4-(8-amino-5-chloro-3-{(2R)-4-[(2R)-2-hydroxypropanoyl]morpholin-2-yl}imidazo[1,5-a]pyrazin-1-yl)-N-[4-(trifluoromethyl)pyridin-2-yl]benzamide]
